Data set [1] relates to cervical cancer. The conditions noted are these: treatment of cervical cancer; cited from earlier work.
The conditions of data set [2]: human, in vivo; cited from earlier work.
The conditions of data set [3]: rat, in vivo.
Data set [4] can be described thus: comparative characteristics: ED50 and therapeutic index. The conditions noted are these: LD50 in rats / ED50.

Take alpha-interferon: in data set [1], the average effectiveness entry is “about 15%”. As to `CN1CC[C@]23c4c5ccc(O)c4O[C@H]2[C@@H](O)C=C[C@H]3[C@H]1C5` [morphine], the average effectiveness in data set [2] is 75%.

With `CC(=O)O[C@@]12CO[C@@H]1C[C@H](O)[C@@]1(C)C(=O)[C@H](O)C3=C(C)[C@@H](OC(=O)[C@H](O)[C@@H](NC(=O)OC(C)(C)C)c4ccccc4)C[C@@](O)([C@@H](OC(=O)c4ccccc4)[C@H]21)C3(C)C` [Taxotere], the “Relative Therapeutic Index” value in data set [3] was 1. In addition, the “Therapeutic Index” value in data set [4] is given as 3.42.

These data come from patent publication US20120130699A1, “Method of molecular design and synthesis of therapeutic and preventive drugs” (priority 2010, published 2012).
